According to patent US20250090510A1, “eIF4G1-eIF1 INHIBITORS AND USE THEREOF” (YEDA RESEARCH AND DEVELOPMENT CO. LTD., priority 2022, published 2025):

Assays:
eIF2α S52A mutant cells = test: Polysome profiling and real-time PCR in eIF2α S52A mutant cells; assay type: cell-based, mouse; settings: i14G1-10 30 μM, i14G1-12 15 μM, 3 h; for translation of ISR genes in polysome fractions: S52A cells; for overall translation, polysome to monosome ratio (P/M): S52A mutant cells
Description: FIGS. 6A-G: i14G1-10 and i14G1-12 uncover roles of the eIF4G1-eIF1 complex in ISR, cell cycle and cell survival. […] (6B). Ribo-seq and TI-seq read tracks of representative stress response-associated mRNAs (i.e., ATF3, and GADD45A) in DMSO (black), i14G1-10 (red), and i14G1-12 (green) samples. The red triangle represents 5′UTR TIS codons and the green denotes annotated TIS. Black arrows show the translation direction. (6C) Mouse embryonic fibroblasts (MEFs) control cells and eIF2αS52A mutant MEF cells were treated with Thapsigargin (1 μM) for 1h. Cells were lysed, and cell lysate was analyzed using western blot with the indicated antibodies. (6D) Control cells and eIF2αS52A mutant MEF cells were treated with DMSO, i14G1-10 (30 μM) or i14G1-12 (15 μM) for 3 h, cells were lysed in polysome buffer and loaded onto sucrose density gradient for polysome separation followed by fractionation. The graph presents the polysomes vs monosomes ratio in control MEFs (purple) and eIF2αS52A mutant cells (blue). (6E) Fractions were pooled (from 6D) according to the polysome profile as free (grey), light (blue), and heavy (yellow) polysomal fractions. cDNA was prepared from each fraction pool and real-time PCR was performed for the indicated stress response genes. The data are shown as mean±SEM, n=3. The asterisks denote statistically significant differences compared to DMSO, according to Student's t-tests (one-tailed, paired), *p<0.05; **p<0.01. (6F-G). HEK293T cells were transfected with HA-eIF1 or HA-eIF4E, 48 h later, treated with (6F) 1 μM Thapsigargin or (6G) 250 nM Torin-1. Cell lysates were subjected to immunoprecipitation with HA-agarose beads to precipitate HA-eIF1 and HA-eIF4E to check for co-IP of eIF4G1 using western blot (left). The graphs on the right represent the relative chemiluminescence signal intensity of the co-immunoprecipitation of eIF4G1 with HA-eIF1 or HA-eIF4E of 4 independent experiments. The asterisks denote statistically significant difference compared to DMSO *p<0.05; **p<0.01.
FIGS. 7A-E: (7A) Ribo-seq and TI-seq read tracks of representative stress response-associated mRNAs (DDIT3 and GADD34) in DMSO (black), i14G1-10 (red), and i14G1-12 (green) samples. The red triangle represents 5′UTR TIS codons and the green denotes annotated TIS. Black arrows show the translation direction. […] The graphs in the lower panel are the quantification of ATF4's uORF1′, uORF1, uORF2, and main-ORF reads of the Ribo-seq data. The asterisks denote statistically significant difference compared to DMSO, according to Student's t-tests (one-tailed, paired). **p<0.01, ***p<0.001, ****p<0.0001. (7C) HEK293T cells were treated with DMSO, i14G1-10, and i14G1-12 for 3 h, lysed and subjected to sucrose gradient sedimentation and fractionation. […]

[1] = tested on: Plasmodium falciparum NF54 strain; test: Parasitemia assay in blood cultures; assay type: cell-based; settings: i14G1-10 20 uM, i14G1-12 10 uM; 1 hour, wash, measured 24 hours later
Protocol: FIGS. 8A-B: (8A) Bar graph of percent parasitemia in blood samples treated with i14G1-10 (20 μM) and i14G1-12 (10 μM) for 1 hour. DMSO treatment was used as a negative control. *=pVal; <0.05, ***=pVal<0.001 (8B) Photograph of a western blot and corresponding gel total protein staining of P. falciparum blood cultures treated with the inhibitors with or without the addition of puromycin. DMSO treatment and untreated cultures were used as a negative control.
From the same flask with -3-4% parasitemia, parasites were plated at 5 ml/well into six well-plates. To the trophozoite stage of development, i14G1-10, i14G1-12, or DMSO, were added and incubated at 37° C. with shaking. After one hour of incubation, from each sample, 1 ml of culture was taken. […]
The next day, the parasitemia (the number of iRBCs divided by the number of total RBCs) was measured by microscopy. The gold-standard method for identifying and quantifying malaria parasites as disclosed in Murphy et al., 2013, “Malaria diagnostics in clinical trials.” Am J Trop Med Hyg., 89(5):824-39, herein incorporated by reference in its entirety, was used. […] Infected RBCs were quantified by eye. No less than 30 fields of view were counted to find the final parasitemia percent.
Parasitaemia levels were measured 24 hours later.

Row | Structure (SMILES) | translation of ISR genes in polysome fractions (eIF2α S52A mutant cells) | overall translation, polysome to monosome ratio (P/M) (eIF2α S52A mutant cells) | reduction of parasite levels (parasitaemia) [1]
1 | Cn1ccnc1S/C(=C/C=C(C#N)C#N)c1ccc(Cl)cc1 [i14G1-12] | upregulated | further inhibited | 69%
2 | O=C(/C=C/Sc1ccc(C(F)(F)F)cn1)c1ccccc1 [i14G1-10] | upregulated | not significantly | 42%
